Source: US9040534B2, “[1,2,4]triazolo[4,3-a]pyrazines as P2X7 modulators” (Janssen Pharmaceutica NV, priority 2013, dated 2015)

Tests used:
[1] = molecular target: T1, P2X7 (Homo sapiens (Human), UniProt Q99572); assay: Ca2+ flux (FLIPR) in 1321N1 cells expressing recombinant human P2X7 channel; type: cell-based; conditions: 250 μM BzATP
Procedure: (§1) (A) Ca^2+ Flux: 1321N1 cells expressing the recombinant human, rat or mouse P2X7 channel was cultured in HyQ DME/(HyClone/Dulbecco's Modified Eagle Medium) high glucose supplemented with 10% Fetal Bovine Serum (FBS) and appropriate selection marker. Cells were seeded at a density of 25000 cells/well (96-well clear bottom black walled plates) in 100 μl volume/well. On the day of the experiment, cell plates were washed with assay buffer, containing (in mM): 130 NaCl, 2 KCl, 1 CaCl2, 1 MgCl2, 10 HEPES, 5 glucose; pH 7.40 and 300 mOs. After the wash, cells were loaded with the Calcium-4 dye (Molecular Device) and incubated in the dark for 60 minutes. Test compounds were prepared at 250× the test concentration in neat DMSO. Intermediate 96-well compound plates were prepared by transferring 1.2 μL of the compound into 300 μL of assay buffer. A further 3× dilution occurred when transferring 50 μL/well of the compound plate to 100 μL/well in the cell plate. Cells were incubated with test compounds and dye for 30 minutes. […] The fluorescence change was measured 180 seconds after adding the agonist.

[2] = molecular target: T2, rat P2X7 (Rattus norvegicus (Rat), UniProt Q64663); assay: Radioligand binding, rat P2X7-1321N1 cell membranes, tritiated A-804598 tracer; conditions: 1 hour at 4° C.
T2 sequence (Q64663 whole entry): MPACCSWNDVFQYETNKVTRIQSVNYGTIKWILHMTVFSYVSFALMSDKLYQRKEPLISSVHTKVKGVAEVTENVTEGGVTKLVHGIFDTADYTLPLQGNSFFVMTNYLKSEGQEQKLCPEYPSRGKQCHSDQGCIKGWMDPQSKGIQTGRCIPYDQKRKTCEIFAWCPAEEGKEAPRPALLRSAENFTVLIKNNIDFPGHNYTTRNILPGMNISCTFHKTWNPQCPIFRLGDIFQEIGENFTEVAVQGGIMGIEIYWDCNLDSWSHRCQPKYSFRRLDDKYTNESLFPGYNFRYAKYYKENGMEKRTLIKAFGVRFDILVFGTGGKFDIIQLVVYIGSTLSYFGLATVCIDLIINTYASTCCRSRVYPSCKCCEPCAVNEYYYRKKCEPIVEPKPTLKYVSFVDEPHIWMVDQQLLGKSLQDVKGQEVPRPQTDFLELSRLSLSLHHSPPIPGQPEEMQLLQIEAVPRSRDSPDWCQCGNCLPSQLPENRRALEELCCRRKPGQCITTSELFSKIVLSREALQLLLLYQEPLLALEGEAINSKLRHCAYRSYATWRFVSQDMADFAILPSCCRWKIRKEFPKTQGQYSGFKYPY
Procedure: (§2) (B) Radioligand binding: human or rat P2X7-1321N1 cells were collected and frozen @ −80° C. On the day of the experiment, cell membrane preparations were made according to standard published methods. The total assay volume was 100 μl:10 μl compound (10×)+(b) 40 μl tracer (2.5×)+50 μl membrane (2×). The tracer used for the assay was tritiated A-804598. The compound can be prepared as described in the literature. (Donnelly-Roberts, D. Neuropharmacology 2009, 56 (1), 223-229.) Compounds, tracer and membranes were incubated for 1 hour @ 4° C. The assay was terminated by filtration (GF/B filters pre-soaked with 0.3% PEI) and washed with washing buffer (Tris-HCl 50 mM). The IC50 generated in the binding assay was corrected for tracer concentration and affinity of the tracer to derive at the affinity (Ki) of the test compounds.

[3] = molecular target: T1, P2X7; assay: Radioligand binding, human P2X7-1321N1 cell membranes, tritiated A-804598 tracer; conditions: 1 hour at 4° C.
Procedure: as §2, with “The total assay volume was 100 μl:10 μl compound (10×)+(b) 40 μl tracer (2.5×)+50 μl membrane (2×). The tracer used for the assay was tritiated A-804598.” left out, “(Donnelly-Roberts, D. Neuropharmacology 2009, 56 (1), 223-229.) Compounds, tracer and membranes were incubated for 1 hour @ 4° C.” left out

[4] = molecular target: T2, rat P2X7; assay: Ca2+ flux (FLIPR) in 1321N1 cells expressing recombinant rat P2X7 channel; type: cell-based; conditions: 250 μM BzATP
Procedure: as §1

[5] = molecular target: T1, P2X7; assay: P2X7 antagonism in human PBMCs (LPS + Bz-ATP induced IL-1β release, ELISA); type: cell-based; conditions: 0.5 mM Bz-ATP; for PBMC 1 μM (% control): 1 μM compound; for remaining activity at 10 µM: P2X7, 10 μM compound, human PBMC, read-out: PBMC 10 μM (% control)
Procedure: Human blood was collected using a blood donor program. PBMCs were isolated from blood using a Ficoll density gradient technique. Briefly, blood was laid on Ficoll solution and centrifuged at RT for 20 minutes at 2000 rpm. The buffy layer (between red blood cells and plasma) was carefully collected by aspiration, washed with PBS and centrifuged again at 1500 rpm for 15 minutes. The resulting cell pellet was washed and plated on 96 well-plates for experiments. For the Mouse/Human Whole Blood experiments, 150 μl of either mouse or human blood was platted on 96 well-plates. Lipopolysaccharide (LPS) (30 ng/ml) was added to each well and incubated for 1 hour. Test compounds were then added and incubated for 30 minutes. The P2X7 agonist, 2′(3′)-O-(4-benzoylbenzoyl) adenosine 5′-triphosphate (Bz-ATP) was then added at a final concentration of 0.5 mM (PBMC) or 1 mM (blood). Cells were incubated for an additional 1.5 hours. At that point, supernatant was collected and stored for IL-1β assay using manufacturer's protocol for enzyme-linked immunosorbent assay (ELISA). Data was expressed as percent control, where control is defined as the difference in IL-1β release in LPS+Bz-ATP samples and LPS only samples. Data was plotted as response (% control) versus concentration to generate IC50 values. […] In Table 2, when the data cell has been left blank, it is intended to mean that the compound was not tested in that assay.

T1 sequence (Q99572 whole entry): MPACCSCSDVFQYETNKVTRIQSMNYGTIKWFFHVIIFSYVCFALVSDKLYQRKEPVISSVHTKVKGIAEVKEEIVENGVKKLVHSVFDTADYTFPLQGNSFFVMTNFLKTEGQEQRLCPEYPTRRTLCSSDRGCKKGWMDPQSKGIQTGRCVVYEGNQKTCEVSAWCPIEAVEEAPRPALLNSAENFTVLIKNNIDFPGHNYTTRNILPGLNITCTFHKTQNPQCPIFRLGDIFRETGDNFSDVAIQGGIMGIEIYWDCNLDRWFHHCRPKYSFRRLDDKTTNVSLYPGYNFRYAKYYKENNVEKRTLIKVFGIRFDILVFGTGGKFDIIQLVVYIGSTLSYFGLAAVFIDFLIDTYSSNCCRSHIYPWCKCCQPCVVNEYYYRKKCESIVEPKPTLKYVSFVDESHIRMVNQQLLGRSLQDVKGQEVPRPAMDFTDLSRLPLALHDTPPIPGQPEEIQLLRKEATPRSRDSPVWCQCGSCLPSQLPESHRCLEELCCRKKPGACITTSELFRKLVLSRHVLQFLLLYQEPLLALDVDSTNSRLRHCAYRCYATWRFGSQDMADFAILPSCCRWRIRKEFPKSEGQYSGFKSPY

| IC50 [1] [nM] | Ki [2] [nM] | Ki [3] [nM] | IC50 [4] [nM] | PBMC 1 μM (% control) [5] [% control] | remaining activity at 10 µM [5] [%] | Compound |
| --- | --- | --- | --- | --- | --- | --- |
| 1.2 | 1 | 3.2 | 375 | – | – | Cc1cc(-c2nnc3n2C[C@H](C)N(Cc2cccc(C(F)(F)F)c2Cl)C3=O)n[nH]1 [Example 26, (6S)-7-[2-Chloro-3-(trifluoromethyl)benzyl]-6-methyl-3-(5-methyl-1H-pyrazol-3-yl)-6,7-dihydro[1,2,4]triazolo[4,3-a]pyrazin-8(5H)-one] |
| 3.2 | 5 | 4 | 2000 | – | – | C[C@H]1Cn2c(nnc2-c2ncco2)C(=O)N1Cc1cccc(C(F)(F)F)c1Cl [Example 20, (6S)-7-[2-Chloro-3-(trifluoromethyl)benzyl]-6-methyl-3-(1,3-oxazol-2-yl)-6,7-dihydro[1,2,4]triazolo[4,3-a]pyrazin-8(5H)-one] |
| 44.2 | 12.6 | 6.3 | 9310 | −0.6 | – | O=C1c2nnc(-c3cnccn3)n2CCN1Cc1cccc(C(F)(F)F)c1Cl [Example 3, 7-[2-Chloro-3-(trifluoromethyl)benzyl]-3-pyrazin-2-yl-6,7-dihydro[1,2,4]triazolo[4,3-a]pyrazin-8(5H)-one] |
| 100 | 5 | 6.3 | 12600 | – | – | C[C@H]1Cn2c(nnc2-c2cncc(F)c2)C(=O)N1Cc1cccc(C(F)(F)F)c1Cl [Example 45, (6S)-7-[2-Chloro-3-(trifluoromethyl)benzyl]-3-(5-fluoropyridin-3-yl)-6-methyl-6,7-dihydro[1,2,4]triazolo[4,3-a]pyrazin-8(5H)-one] |
| 13.2 | – | 12.6 | 543 | – | – | Cc1ncccc1-c1nnc2n1C[C@H](C)N(Cc1cccc(C(F)(F)F)c1Cl)C2=O [Example 48, (6S)-7-[2-Chloro-3-(trifluoromethyl)benzyl]-6-methyl-3-(2-methylpyridin-3-yl)-6,7-dihydro[1,2,4]triazolo[4,3-a]pyrazin-8(5H)-one] |
| < 1 | 2 | 5 | 316 | – | – | C[C@H]1Cn2c(nnc2-c2ccccn2)C(=O)N1Cc1cccc(C(F)(F)F)c1Cl [Example 18, (6S)-7-[2-Chloro-3-(trifluoromethyl)benzyl]-6-methyl-3-pyridin-2-yl-6,7-dihydro[1,2,4]triazolo[4,3-a]pyrazin-8(5H)-one] |
| 1.2 | – | 4 | 135 | – | – | C[C@H]1Cn2c(nnc2-c2nccs2)C(=O)N1Cc1cccc(C(F)(F)F)c1Cl [Example 31, (6S)-7-[2-Chloro-3-(trifluoromethyl)benzyl]-6-methyl-3-(1,3-thiazol-2-yl)-6,7-dihydro[1,2,4]triazolo[4,3-a]pyrazin-8(5H)-one] |
| 96.6 | – | 25.1 | 3150 | – | – | C[C@H]1Cn2c(nnc2-c2cn[nH]c2)C(=O)N1Cc1cccc(C(F)(F)F)c1Cl [Example 25, (6S)-7-[2-Chloro-3-(trifluoromethyl)benzyl]-6-methyl-3-(1H-pyrazol-4-yl)-6,7-dihydro[1,2,4]triazolo[4,3-a]pyrazin-8(5H)-one] |
| 0.9 | – | – | – | – | 3.3 | C[C@H]1Cn2c(nnc2-c2ccc(F)cn2)C(=O)N1Cc1cccc(C(F)(F)F)c1Cl [Example 30, (6S)-7-[2-Chloro-3-(trifluoromethyl)benzyl]-3-(5-fluoropyridin-2-yl)-6-methyl-6,7-dihydro[1,2,4]triazolo[4,3-a]pyrazin-8(5H)-one] |
| 2.5 | 3.2 | 3.2 | 1220 | – | – | C[C@H]1Cn2c(nnc2-c2ccn(C)n2)C(=O)N1Cc1cccc(C(F)(F)F)c1Cl [Example 23, (6S)-7-[2-Chloro-3-(trifluoromethyl)benzyl]-6-methyl-3-(1-methyl-1H-pyrazol-3-yl)-6,7-dihydro[1,2,4]triazolo[4,3-a]pyrazin-8(5H)-one] |
| 1 | 5.6 | 4 | 122 | – | – | C[C@H]1Cn2c(nnc2-c2cccnc2)C(=O)N1Cc1cccc(C(F)(F)F)c1Cl [Example 29, (6S)-7-[2-Chloro-3-(trifluoromethyl)benzyl]-6-methyl-3-pyridin-3-yl-6,7-dihydro[1,2,4]triazolo[4,3-a]pyrazin-8(5H)-one] |
| – | – | – | – | – | 20.6 | C[C@@H]1Cn2c(nnc2-c2cnccn2)C(=O)N1Cc1cccc(Cl)c1Cl [Example 12, (6R)-7-(2,3-Dichlorobenzyl)-6-methyl-3-pyrazin-2-yl-6,7-dihydro[1,2,4]triazolo[4,3-a]pyrazin-8(5H)-one] |
| 4 | – | 5 | 6040 | – | – | C[C@H]1Cn2c(nnc2-c2cnccn2)C(=O)N1Cc1cccc(C(F)(F)F)c1 [Example 88, (6S)-6-Methyl-3-pyrazin-2-yl-7-[3-(trifluoromethyl)benzyl]-6,7-dihydro[1,2,4]triazolo[4,3-a]pyrazin-8(5H)-one] |
| > 10000 | – | 631 | > 10000 | – | – | C[C@H]1Cn2c(nnc2C2CCCNC2)C(=O)N1Cc1cccc(C(F)(F)F)c1Cl (stereo partly drawn) [Example 60, (6S)-7-[2-Chloro-3-(trifluoromethyl)benzyl]-6-methyl-3-piperidin-3-yl-6,7-dihydro[1,2,4]triazolo[4,3-a]pyrazin-8(5H)-one] |
| – | – | – | – | – | 14.1 | O=C1c2nnc(-c3cnccn3)n2C[C@@H](C2CC2)N1Cc1cccc(C(F)(F)F)c1Cl (single isomer, unassigned) [Example 62] |
| < 1 | 1.6 | 2.5 | 158 | – | – | CC[C@H]1Cn2c(nnc2-c2ccc(F)cn2)C(=O)N1Cc1cccc(C(F)(F)F)c1Cl [Example 76, (6S)-7-[2-Chloro-3-(trifluoromethyl)benzyl]-6-ethyl-3-(5-fluoropyridin-2-yl)-6,7-dihydro[1,2,4]triazolo[4,3-a]pyrazin-8(5H)-one] |
| – | – | – | – | – | 27.3 | O=C1c2nnc(-c3cnccn3)n2C[C@H](C2CC2)N1Cc1cccc(C(F)(F)F)c1Cl (single isomer, unassigned) [Example 63] |
| – | – | – | 1140 | – | 10.9 | C[C@H]1Cn2c(nnc2C2CCCN(C(=O)OC(C)(C)C)C2)C(=O)N1Cc1cccc(C(F)(F)F)c1Cl (stereo partly drawn) [Example 59, (6S)-tert-Butyl3-{7-[2-chloro-3-(trifluoromethyl)benzyl]-6-methyl-8-oxo-5,6,7,8-tetrahydro[1,2,4]triazolo[4,3-a]pyrazin-3-yl}piperidine-1-carboxylate] |
| – | – | – | – | 50.6 | – | O=C1c2nnc(-c3cnccn3)n2CCN1Cc1cccc(Cl)c1Cl [Example 2, 7-(2,3-Dichlorobenzyl)-3-pyrazin-2-yl-6,7-dihydro[1,2,4]triazolo[4,3-a]pyrazin-8(5H)-one] |

| Compound | IC50 [1] [nM] | Ki [2] [nM] | Ki [3] [nM] | IC50 [4] [nM] | PBMC 1 μM (% control) [5] [% control] | remaining activity at 10 µM [5] [%] |
| --- | --- | --- | --- | --- | --- | --- |
| CC[C@H]1Cn2c(nnc2-c2cnccn2)C(=O)N1Cc1cccc(C(F)(F)F)c1Cl [Example 71, (6S)-7-[2-Chloro-3-(trifluoromethyl)benzyl]-6-ethyl-3-pyrazin-2-yl-6,7-dihydro[1,2,4]triazolo[4,3-a]pyrazin-8(5H)-one] | 0.3 | – | 1.3 | 10.3 | – | – |
